Reference: ChEMBL document CHEMBL5390201, “The Natural Alkaloid (-)-N-Hydroxyapiosporamide Suppresses Colorectal Tumor Progression as an NF-κB Pathway Inhibitor by Targeting the TAK1-TRAF6 Complex” (J Nat Prod, 2023)
Calls of active or inactive are those of the source. The calls are words filed in the database; no cut-off is given here.

Assays:
Mus musculus [1] = experiment: Anti-inflammatory activity in AOM/DSS-induced BALB/c mouse model inflammatory bowel disease assessed as reduction in distortion of glands at 10 mg/kg, ip pretreated with AOM for 7 days further replaced with DSS for 7 days and repeated for 2 times followed by every 2 days compound treatment for […] starting from day 50 by H and E staining based analysis; format: functional, organism-based; conditions: time 21.0 day
HT-29 [2] = experiment: Induction of apoptosis in human HT-29 cells assessed as necrotic cells at 5 uM incubated for 24 hrs by Annexin V-FITC/PI staining based flow cytometric analysis (reference value: 0.37 %); format: functional
HT-29 [3] = experiment: Induction of apoptosis in human HT-29 cells assessed as inhibition of caspase 9 protein expression measured for 24 hrs by Western blot analysis; format: functional, cell-based; conditions: dose 0-10 µM
HT-29 [4] = experiment: Antitumor activity against human HT-29 cells xenografted in athymic nude BALB/c mouse assessed as induction of apoptosis by measuring increase in cleaved PARP expression in tumor at 15 mg/kg, ip administered every other day and measured after 14 days by immunohistochemistry analysis; format: functional, organism-based; conditions: time 14.0 day
HCT-116 [5] = experiment: Induction of autophagy in human HCT-116 cells transfected with GFP-LC3 assessed as increase in LC3 dot puncta at 1 to 10 uM incubated for 24 hrs by fluorescence microscopy; format: functional, cell-based; conditions: dose 1-10 µM
Mus musculus [6] = experiment: In vivo inhibition of NFkappaB activation in AOM/DSS-induced inflammatory bowel disease BALB/c mouse model assessed as inhibition of serum TNF-alpha production at 5 to 10 mg/kg, ip pretreated with AOM for 7 days further replaced with DSS for 7 days and repeated for 2 times followed by every 2 days compound treatment for […] starting from day 50 by ELISA; format: functional, organism-based; conditions: dose 5-10 mg/kg, time 21.0 day
Cell membrane = experiment: Disruption of mitochondrial membrane potential in human HT-29 cells at 0.25 to 10 uM measured after 24 hrs by JC-1 staining based flow cytometry analysis; format: subcellular; conditions: dose 0.25-10 µM
[7] = target: T1, Nuclear factor NF-kappa-B complex (Homo sapiens) (UniProt Q00653+P19838+Q04206); experiment: Inhibition of TNF-alpha induced NFkappaB activation in human HCT-116 cells assessed as downregulation of MCP-1 gene expression pretreated for 24 hrs followed by TNFalpha stimulation and measured after 2 hrs by quantitative RT-PCR analysis; format: cell-based; conditions: dose 1-10 µM, time 26.0 hrs
HT-29 [8] = experiment: Induction of apoptosis in human HT-29 cells assessed as necrotic cells at 0.5 uM incubated for 24 hrs by Annexin V-FITC/PI staining based flow cytometric analysis (reference value: 0.14 %); format: functional
HT-29 [9] = experiment: Induction of apoptosis in human HT-29 cells assessed as inhibition of caspase 8 protein expression measured for 24 hrs by Western blot analysis; format: functional, cell-based; conditions: dose 0-10 µM
Mus musculus [10] = experiment: In vivo inhibition of NFkappaB activation in LPS-induced BALB/c mouse model of endotoxin shock assessed as reduction in TNF-alpha level in serum at 5 mg/kg, ip pretreated for 4 hrs followed by LPS stimulation for 1 hr by ELISA; format: functional, organism-based; conditions: time 5.0 hrs
[11] = Plasma clearance in Sprague-Dawley rat at 10 mg/kg, iv measured for 24 hrs by HPLC-MS/MS analysis; format: ADME, organism-based
HT-29 [12] = experiment: Induction of apoptosis in human HT-29 cells assessed as necrotic cells at 5 uM incubated for 24 hrs by Annexin V-FITC/PI staining based flow cytometric analysis (reference value: 0.14 %); format: functional
HT-29 [13] = experiment: Antitumor activity against human HT-29 cells xenografted in athymic nude BALB/c mouse assessed as induction of autophagy by measuring reduction in p62 expression in tumor at 15 mg/kg, ip administered every other day and measured after 14 days by immunohistochemistry analysis; format: functional, organism-based; conditions: time 14.0 day
HCT-116 [14] = experiment: Cytotoxicity against human HCT-116 cells assessed as decrease in cell viability incubated for 48 hrs by SRB assay; format: functional, cell-based; conditions: HCT-116, 48 h
[15] = target: T1, Nuclear factor NF-kappa-B complex (Homo sapiens); experiment: Inhibition of NFkappaB activation in HEK293T cells transfected with HA-tagged p65 and kappaB luciferase/pTK-renilla reporters at 2 uM incubated for 6 hrs by Dual Luciferase Reporter Assay; format: cell-based; conditions: HEK-293T
Mus musculus [16] = experiment: Anti-inflammatory activity in AOM/DSS-induced BALB/c mouse model inflammatory bowel disease assessed as reduction in tumor load at 5 to 10 mg/kg, ip pretreated with AOM for 7 days further replaced with DSS for 7 days and repeated for 2 times followed by every 2 days compound treatment for […] starting from day 50 and measured once a week; format: functional, organism-based; conditions: dose 5-10 mg/kg, time 21.0 day
HCT-116 [17] = experiment: Induction of cell cycle arrest in human HCT-116 cells assessed as accumulation of cells at S phase at 5 uM by RNase/PI staining based flow cytometry analysis (reference value: 43.77 %); format: functional
HCT-116 [18] = experiment: Antitumor activity against human HCT-116 cells xenografted in athymic nude BALB/c mouse assessed as induction of apoptosis by measuring increase in cleaved caspase 3 expression in tumor at 15 mg/kg, ip administered every other day and measured after 14 days by immunohistochemistry analysis; format: functional, organism-based; conditions: time 14.0 day
HCT-116 [19] = experiment: Induction of apoptosis in human HCT-116 cells assessed as viable cells at 5 uM preincubated with Z-VAD-FMK for 1 hr followed by compound addition and measured after 24 hrs by Annexin V-FITC/PI staining based flow cytometric analysis (reference value: 85.5 %); format: functional; conditions: read-out: Activity
HCT-116 [20] = experiment: Induction of apoptosis in human HCT-116 cells assessed as early apoptotic cells at 1 uM incubated for 24 hrs by Annexin V-FITC/PI staining based flow cytometric analysis (reference value: 7.22 %); format: functional
HCT-116 [21] = experiment: Induction of apoptosis in human HCT-116 cells assessed as viable cells at 10 uM incubated for 24 hrs by Annexin V-FITC/PI staining based flow cytometric analysis (reference value: 88.8%); format: functional; conditions: read-out: Activity
HCT-116 [22] = experiment: Induction of autophagic cell death in human HCT-116 cells at 1 to 10 uM pretreated with 3-methyladenine for 1 hr followed by compound addition and measured after 24 hrs by SRB assay; format: functional, cell-based; conditions: dose 1-10 µM
HCT-116 [23] = experiment: Induction of apoptosis in human HCT-116 cells assessed as necrotic cells at 0.5 uM incubated for 24 hrs by Annexin V-FITC/PI staining based flow cytometric analysis (reference value: 1.1 %); format: functional
[24] = Toxicity in athymic nude BALB/c mouse xenografted with human HT-29 cells assessed as pathological changes in lungs at 5 to 15 mg/kg, ip administered every other day and measured after 14 days by hematoxylin and eosin staining-based microscopic analysis; format: organism-based; conditions: in vivo, 336 h, dose 5-15 mg/kg, time 14 day
HCT-116 [25] = experiment: Induction of cell cycle arrest in human HCT-116 cells assessed as decrease in Cdc25c protein expression upto 10 uM incubated for 24 hrs by Western blot analysis; format: functional, cell-based
HCT-116 [26] = experiment: Induction of apoptosis in human HCT-116 cells assessed as early apoptotic cells at 5 uM preincubated with Z-VAD-FMK for 1 hr followed by compound addition and measured after 24 hrs by Annexin V-FITC/PI staining based flow cytometric analysis (reference value: 4.75 %); format: functional
[27] = Toxicity in athymic nude BALB/c mouse assessed as change in serum creatine kinase level at 5 to 15 mg/kg, ip administered every other day and measured after 14 days; format: organism-based; conditions: in vivo, 336 h, dose 5-15 mg/kg, time 14 day
HCT-116 [28] = experiment: Induction of apoptosis in human HCT-116 cells assessed as late apoptotic cells at 5 uM incubated for 24 hrs by Annexin V-FITC/PI staining based flow cytometric analysis (reference value: 16.9 %); format: functional

T1 sequence (P19838 whole entry, looked up): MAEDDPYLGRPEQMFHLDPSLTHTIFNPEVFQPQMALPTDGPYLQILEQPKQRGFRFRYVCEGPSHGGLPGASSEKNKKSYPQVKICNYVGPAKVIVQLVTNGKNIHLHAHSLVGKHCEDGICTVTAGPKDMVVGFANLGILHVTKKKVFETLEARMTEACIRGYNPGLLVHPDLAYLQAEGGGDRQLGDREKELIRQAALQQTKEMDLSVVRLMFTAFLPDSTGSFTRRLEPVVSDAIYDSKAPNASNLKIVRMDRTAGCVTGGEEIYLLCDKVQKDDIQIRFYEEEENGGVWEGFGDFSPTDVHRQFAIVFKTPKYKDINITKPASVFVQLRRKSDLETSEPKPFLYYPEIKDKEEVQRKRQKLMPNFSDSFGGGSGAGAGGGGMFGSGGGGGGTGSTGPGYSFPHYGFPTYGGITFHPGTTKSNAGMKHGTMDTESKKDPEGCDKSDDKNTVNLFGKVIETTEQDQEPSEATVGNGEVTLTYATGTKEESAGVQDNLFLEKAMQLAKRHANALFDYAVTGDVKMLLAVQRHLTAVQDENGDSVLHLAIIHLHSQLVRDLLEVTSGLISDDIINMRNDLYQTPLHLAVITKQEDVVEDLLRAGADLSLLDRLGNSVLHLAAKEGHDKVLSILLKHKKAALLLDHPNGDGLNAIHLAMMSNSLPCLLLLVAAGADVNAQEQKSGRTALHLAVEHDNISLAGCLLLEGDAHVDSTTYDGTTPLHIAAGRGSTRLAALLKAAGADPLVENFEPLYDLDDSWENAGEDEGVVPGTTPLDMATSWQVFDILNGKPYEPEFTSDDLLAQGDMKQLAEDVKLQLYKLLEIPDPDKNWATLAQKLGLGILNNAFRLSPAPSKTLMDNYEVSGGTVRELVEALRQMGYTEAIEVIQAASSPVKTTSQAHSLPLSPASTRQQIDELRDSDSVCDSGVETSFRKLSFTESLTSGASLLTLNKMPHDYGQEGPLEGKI
T1 sequence (Q00653 whole entry, looked up): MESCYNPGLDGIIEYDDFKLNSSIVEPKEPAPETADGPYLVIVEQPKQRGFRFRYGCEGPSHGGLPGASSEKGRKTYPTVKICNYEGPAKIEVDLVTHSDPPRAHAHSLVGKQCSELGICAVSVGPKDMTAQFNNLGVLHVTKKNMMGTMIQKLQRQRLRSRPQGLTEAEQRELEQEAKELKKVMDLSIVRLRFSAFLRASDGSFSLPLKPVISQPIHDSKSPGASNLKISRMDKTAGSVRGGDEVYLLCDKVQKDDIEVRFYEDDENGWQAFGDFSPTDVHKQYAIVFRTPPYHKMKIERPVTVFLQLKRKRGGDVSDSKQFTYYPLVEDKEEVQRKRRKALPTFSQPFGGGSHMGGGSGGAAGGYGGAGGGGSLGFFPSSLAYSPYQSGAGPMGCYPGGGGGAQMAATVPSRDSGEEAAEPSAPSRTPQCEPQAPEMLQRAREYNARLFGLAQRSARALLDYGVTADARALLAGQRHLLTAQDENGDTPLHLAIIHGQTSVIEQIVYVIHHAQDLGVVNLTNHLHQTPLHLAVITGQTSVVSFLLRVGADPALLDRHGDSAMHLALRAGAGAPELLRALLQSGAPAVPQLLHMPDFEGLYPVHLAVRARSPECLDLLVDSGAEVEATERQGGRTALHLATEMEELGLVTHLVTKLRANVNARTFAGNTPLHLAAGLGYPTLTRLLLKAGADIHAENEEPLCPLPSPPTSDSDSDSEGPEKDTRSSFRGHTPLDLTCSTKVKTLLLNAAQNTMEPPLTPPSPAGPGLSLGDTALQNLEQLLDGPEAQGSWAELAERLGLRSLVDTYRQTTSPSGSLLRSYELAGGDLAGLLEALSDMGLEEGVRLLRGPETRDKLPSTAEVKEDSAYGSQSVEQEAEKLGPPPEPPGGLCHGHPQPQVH
T1 sequence (Q04206 whole entry, looked up): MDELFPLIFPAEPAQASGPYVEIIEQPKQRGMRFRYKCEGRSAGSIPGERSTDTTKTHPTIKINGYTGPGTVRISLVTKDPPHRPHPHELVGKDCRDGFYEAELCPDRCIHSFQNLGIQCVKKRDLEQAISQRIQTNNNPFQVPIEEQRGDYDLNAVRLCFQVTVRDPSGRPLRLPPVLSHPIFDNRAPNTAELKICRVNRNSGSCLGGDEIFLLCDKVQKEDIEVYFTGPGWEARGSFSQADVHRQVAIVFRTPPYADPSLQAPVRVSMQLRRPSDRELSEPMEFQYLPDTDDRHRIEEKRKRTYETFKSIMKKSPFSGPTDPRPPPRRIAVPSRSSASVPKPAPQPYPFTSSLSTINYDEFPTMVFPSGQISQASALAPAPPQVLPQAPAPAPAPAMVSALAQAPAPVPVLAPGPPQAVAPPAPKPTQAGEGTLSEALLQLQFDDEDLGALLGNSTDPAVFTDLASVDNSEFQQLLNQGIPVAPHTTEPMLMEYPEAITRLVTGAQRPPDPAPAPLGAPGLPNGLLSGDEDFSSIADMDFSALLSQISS

Compound: C[C@@H]1CC[C@H]2[C@H](C(=O)c3c(O)c([C@@]4(O)CC[C@@H](O)[C@H]5O[C@H]54)cn(O)c3=O)[C@H](C)C=C[C@@H]2C1
- Activity (Mus musculus [1]): Active
- Activity (HT-29 [2]): 0.29%
- Activity (HT-29 [3]): Dose-Dependent Effect
- Activity (HT-29 [4]): Active
- Activity (HCT-116 [5]): Active
- inhibition (Mus musculus [6]): Active
- Activity (Cell membrane): Active
- inhibition [7]: Dose-Dependent Effect
- Activity (HT-29 [8]): 0.2%
- Activity (HT-29 [9]): Dose-Dependent Effect
- inhibition (Mus musculus [10]): Active
- clearance [11]: 4 mL/min/kg
- Activity (HT-29 [12]): 0.22%
- Activity (HT-29 [13]): Active
- IC50 (HCT-116 [14]): 930 nM
- inhibition [15]: Active
- Activity (Mus musculus [16]): Active
- Activity (HCT-116 [17]): 40.03%
- Activity (HCT-116 [18]): Active
- viability at 5 µM (HCT-116 [19]): 29.5%
- Activity (HCT-116 [20]): 18.6%
- viability at 10 µM (HCT-116 [21]): 11.1%
- Activity (HCT-116 [22]): inactive
- Activity (HCT-116 [23]): 2.54%
- Activity [24]: Non-Toxic
- Activity (HCT-116 [25]): Active
- Activity (HCT-116 [26]): 16.8%
- Activity [27]: Non-Toxic
- Activity (HCT-116 [28]): 78.5%
